Reference: patent publication US20260224566A1, “Obicetrapib and Ezetimibe Combination Treatment and Fixed Dose Pharmaceutical Compositions” (NewAmsterdam Pharma B.V., priority 2023, published 2026)

Test system: participants currently receiving high-intensity statin therapy
Experiment: ROSE2 Phase 2b clinical trial: LDL-C and other lipid efficacy endpoints
Type: in vivo, human
Procedure: The primary objective of this study is to evaluate the effect of obicetrapib 10 mg+ezetimibe 10 mg combination therapy compared with placebo, when used as an adjunct to high-intensity statin therapy, on LDL-C at Day 84.
The secondary objectives of this study include the following, in hierarchical order: • To evaluate the effect of obicetrapib 10 mg monotherapy compared with placebo, when used as an adjunct to high-intensity statin therapy, on LDL-C at Day 84; • To evaluate the effect of obicetrapib 10 mg+ezetimibe 10 mg combination therapy compared with placebo, when used as an adjunct to high-intensity statin therapy, on ApoB at Day 84; and • To evaluate the effect of obicetrapib 10 mg monotherapy compared with placebo, when used as an adjunct to high-intensity statin therapy, on ApoB at Day 84.
This study will be a placebo-controlled, double-blind, randomized, Phase 2 study to evaluate the efficacy, safety, and tolerability of obicetrapib 10 mg, both in combination with ezetimibe 10 mg and as monotherapy, as an adjunct to high-intensity statin therapy. This study will take place at approximately 20 sites in the United States.
Up to 2 weeks after the Screening Visit, participants will return to the site on Day 1 (Visit 2) and confirm study eligibility before being randomized and beginning treatment. Approximately 114 eligible participants (38 participants per treatment group) will be randomized in a 1:1:1 ratio to 1 of the following treatment groups: • Combination therapy: Obicetrapib 10 mg+ezetimibe 10 mg (administered as one 10 mg obicetrapib tablet and one 10 mg ezetimibe capsule); • Obicetrapib monotherapy: Obicetrapib 10 mg (administered as one 10 mg obicetrapib tablet and 1 placebo capsule); or. • Placebo (administered as 1 placebo tablet and 1 placebo capsule).
During the 12-week Treatment Period, the assigned study drugs will be administered by the participants orally with water, once daily on Day 1 to Day 84 at approximately the same time each morning. Participants will return to the site on Day 28 (±2 days), Day 84 (±2 days), and Day 112 (±2 days) for efficacy, safety, and pharmacokinetic (PK) assessments. Participants, Investigators, the Clinical Research Organization (CRO), and the Sponsor will be blinded to all lipid results from Day 1 (Visit 2) for the first participant until all enrolled participants complete the Day 84 (End of Treatment) visit or are withdrawn from the study, in order to protect blinding to treatment assignment.
The primary efficacy endpoint is the percent change from Day 1 to Day 84 in LDL-C for the obicetrapib 10 mg+ezetimibe 10 mg combination treatment group compared with the placebo group.
The secondary efficacy endpoints include the following, in hierarchical order: • Percent change from Day 1 to Day 84 in LDL-C for the obicetrapib 10 mg monotherapy. • treatment group compared with the placebo group; • Percent change from Day 1 to Day 84 in ApoB for the obicetrapib 10 mg+ezetimibe 10 mg • combination treatment group compared with the placebo group; and • Percent change from Day 1 to Day 84 in ApoB for the obicetrapib 10 mg monotherapy treatment group compared with the placebo group.
The exploratory efficacy endpoints include the following: • Percent change from Day 1 to Day 84 in non-HDL-C, VLDL-C, HDL-C, TG, ApoE, Lp(a), and HDL-ApoE for the obicetrapib 10 mg+ezetimibe 10 mg combination treatment group compared with the placebo group and for the obicetrapib 10 mg monotherapy treatment group compared with the placebo group; and • Proportion of participants at Day 84 that achieve LDL-C <2.6 mmol/L (<100 mg/dL), LDL-C <1.8 mmol/L (<70 mg/dL), and LDL-C <1.3 mmol/L (<50 mg/dL) for the obicetrapib 10 mg+ezetimibe 10 mg combination treatment group compared with the placebo group and for the obicetrapib 10 mg monotherapy treatment group compared with the placebo group. […]

[1] = Exploratory Population, 10 mg each drug
[2] = mITT Population, 10 mg each drug

Structure (SMILES): CCOC(=O)N1c2ccc(C(F)(F)F)cc2[C@@H](N(Cc2cc(C(F)(F)F)cc(C(F)(F)F)c2)c2ncc(OCCCC(=O)O)cn2)C[C@H]1CC [obicetrapib, {4-[(2-{[3,5-bis(trifluoromethyl)benzyl] [(2R,4S)-1-(ethoxycarbonyl)-2-ethyl-6-(trifluoromethyl)-1,2,3,4-tetrahydroquinolin-4-yl]amino}pyrimidin-5-yl)oxy]butanoic acid}]
- ApoB Change from Baseline to Day 28, Maximum [1]: -1 mg/dL
- ApoB Change from Baseline to Day 28, Median [1]: -23.0 mg/dL
- ApoB Change from Baseline to Day 28, Minimum [1]: -55 mg/dL
- ApoB Change from Baseline to Day 84, Maximum [1]: 19 mg/dL
- ApoB Change from Baseline to Day 84, Minimum [1]: -52 mg/dL
- ApoB Percent Change from Baseline to Day 28, Maximum [1]: −3.0%
- ApoB Percent Change from Baseline to Day 28, Mean [1]: −26.00%
- ApoB Percent Change from Baseline to Day 28, Median [1]: −26.00%
- ApoB Percent Change from Baseline to Day 28, Minimum [1]: −47.4%
- ApoB Percent Change from Baseline to Day 84, Maximum [1]: 27.1%
- ApoB Percent Change from Baseline to Day 84, Minimum [1]: −44.8%
- LDL-C Change from Baseline to Day 28, Maximum [1]: -11 mg/dL
- LDL-C Change from Baseline to Day 28, Mean [1]: -43.0 mg/dL
- LDL-C Change from Baseline to Day 28, Median [1]: -45.0 mg/dL
- LDL-C Change from Baseline to Day 28, Minimum [1]: -87 mg/dL
- LDL-C Change from Baseline to Day 84, Maximum [1]: 24 mg/dL
- LDL-C Change from Baseline to Day 84, Minimum [1]: -112 mg/dL
- LDL-C Percent Change from Baseline to Day 28, Maximum [1]: −10.4%
- LDL-C Percent Change from Baseline to Day 28, Minimum [1]: −82.0%
- LDL-C Percent Change from Baseline to Day 84, Maximum [1]: 22.6%
- LDL-C Percent Change from Baseline to Day 84, Minimum [1]: −78.4%
- Lp(a) Change from Baseline to Day 84, Maximum [1]: 3.0 nmol/L
- ApoB at Day 28, Maximum [1]: 110 mg/dL
- ApoB at Day 28, Mean [1]: 65.4 mg/dL
- ApoB at Day 28, Median [1]: 64.5 mg/dL
- ApoB at Day 28, Minimum [1]: 32 mg/dL
- LDL-C at Day 28, Maximum [1]: 136 mg/dL
- LDL-C at Day 28, Mean [1]: 57.6 mg/dL
- LDL-C at Day 28, Median [1]: 51.5 mg/dL
- LDL-C at Day 28, Minimum [1]: 16 mg/dL
- ApoB at Day 84, Maximum [1]: 123 mg/dL
- ApoB at Day 84, Mean [1]: 69.1 mg/dL
- ApoB at Day 84, Median [1]: 65.0 mg/dL
- ApoB at Day 84, Minimum [1]: 30 mg/dL
- LDL-C at Day 84, Maximum [1]: 148 mg/dL
- LDL-C at Day 84, Mean [1]: 60.7 mg/dL
- LDL-C at Day 84, Median [1]: 55.5 mg/dL
- LDL-C at Day 84, Minimum [1]: 21 mg/dL
- Lp(a) at Day 84, Maximum [1]: 327.7 nmol/L
- Lp(a) at Day 84, Mean [1]: 74.75 nmol/L
- Lp(a) at Day 84, Median [1]: 20.85 nmol/L
- Lp(a) at Day 84, Minimum [1]: 2.8 nmol/L
- median reduction in LDL-C (ROSE2, obicetrapib 10 mg with or without ezetimibe 10 mg, adjunct to high-intensity statin): 39%
- ApoB Change from Baseline to Day 28, Maximum [2]: 50 mg/dL
- ApoB Change from Baseline to Day 28, Median [2]: -20.0 mg/dL
- ApoB Change from Baseline to Day 28, Minimum [2]: -85 mg/dL
- ApoB Change from Baseline to Day 84, Maximum [2]: 67 mg/dL
- ApoB Change from Baseline to Day 84, Minimum [2]: -52 mg/dL
- ApoB Percent Change from Baseline to Day 28, Maximum [2]: 64.9%
- ApoB Percent Change from Baseline to Day 28, Minimum [2]: −62.0%
- ApoB Percent Change from Baseline to Day 84, Maximum [2]: 100.0%
- ApoB Percent Change from Baseline to Day 84, Mean [2]: −9.50%
- ApoB Percent Change from Baseline to Day 84, Minimum [2]: −44.8%
- LDL-C Change from Baseline to Day 28, Maximum [2]: 64 mg/dL
- LDL-C Change from Baseline to Day 28, Median [2]: -35.0 mg/dL
- LDL-C Change from Baseline to Day 28, Minimum [2]: -121 mg/dL
- LDL-C Change from Baseline to Day 84, Maximum [2]: 98 mg/dL
- LDL-C Change from Baseline to Day 84, Minimum [2]: -112 mg/dL
- LDL-C Percent Change from Baseline to Day 28, Maximum [2]: 70.3%
- LDL-C Percent Change from Baseline to Day 28, Minimum [2]: −82.0%
- LDL-C Percent Change from Baseline to Day 84, Maximum [2]: 161.5%
- LDL-C Percent Change from Baseline to Day 84, Minimum [2]: −78.4%
- Lp(a) Change from Baseline to Day 84, Maximum [2]: 22.0 nmol/L
- Lp(a) Change from Baseline to Day 84, Median [2]: -4.50 nmol/L
- ApoB at Day 28, Maximum [2]: 140 mg/dL
- ApoB at Day 28, Mean [2]: 73.4 mg/dL
- ApoB at Day 28, Median [2]: 66.0 mg/dL
- ApoB at Day 28, Minimum [2]: 32 mg/dL
- LDL-C at Day 28, Maximum [2]: 169 mg/dL
- LDL-C at Day 28, Mean [2]: 70.3 mg/dL
- LDL-C at Day 28, Median [2]: 56.0 mg/dL
- LDL-C at Day 28, Minimum [2]: 16 mg/dL
- ApoB at Day 84, Maximum [2]: 147 mg/dL
- ApoB at Day 84, Mean [2]: 82.4 mg/dL
- ApoB at Day 84, Median [2]: 72.0 mg/dL
- ApoB at Day 84, Minimum [2]: 30 mg/dL
- LDL-C at Day 84, Maximum [2]: 196 mg/dL
- LDL-C at Day 84, Mean [2]: 82.7 mg/dL
- LDL-C at Day 84, Median [2]: 65.0 mg/dL
- LDL-C at Day 84, Minimum [2]: 21 mg/dL
- Lp(a) at Day 84, Maximum [2]: 327.7 nmol/L
- Lp(a) at Day 84, Mean [2]: 77.96 nmol/L
- Lp(a) at Day 84, Median [2]: 26.25 nmol/L
- Lp(a) at Day 84, Minimum [2]: 2.8 nmol/L
